According to BigSolDB 2.1:

COC(=O)Nc1nc2ccc(C(=O)c3ccc(F)cc3)cc2[nH]1
Settings | solubility (mole fraction)
in 1,4-dioxane, 288.15 K | 8.29e-05
in 1,4-dioxane, 293.15 K | 9.83e-05
in 1,4-dioxane, 298.15 K | 0.00012
in 1,4-dioxane, 303.15 K | 0.00014
in 1,4-dioxane, 308.15 K | 0.000168
in 1,4-dioxane, 313.15 K | 0.000195
in 1,4-dioxane, 318.15 K | 0.000229
in 1,4-dioxane, 323.15 K | 0.000266
in 1,4-dioxane, 328.15 K | 0.000308
in 1,4-dioxane, 333.15 K | 0.000357
in 2-butanone, 283.15 K | 0.000232
in 2-butanone, 288.15 K | 0.000305
in 2-butanone, 293.15 K | 0.000401
in 2-butanone, 298.15 K | 0.000516
in 2-butanone, 303.15 K | 0.000682
in 2-butanone, 308.15 K | 0.000837
in 2-butanone, 313.15 K | 0.00104
in 2-butanone, 318.15 K | 0.00132
in 2-butanone, 323.15 K | 0.0017
in 2-butanone, 328.15 K | 0.00204
in 2-butanone, 333.15 K | 0.00248
in DMF, 283.15 K | 0.000572
in DMF, 288.15 K | 0.000708
in DMF, 293.15 K | 0.000821
in DMF, 298.15 K | 0.00098
in DMF, 303.15 K | 0.00116
in DMF, 308.15 K | 0.00138
in DMF, 313.15 K | 0.00162
in DMF, 318.15 K | 0.00188
in DMF, 323.15 K | 0.0022
in DMF, 328.15 K | 0.00259
in DMF, 333.15 K | 0.00309
in DMSO, 293.15 K | 0.00191
in DMSO, 298.15 K | 0.00221
in DMSO, 303.15 K | 0.00261
in DMSO, 308.15 K | 0.00303
in DMSO, 313.15 K | 0.00358
in DMSO, 318.15 K | 0.00419
in DMSO, 323.15 K | 0.00481
in DMSO, 328.15 K | 0.00548
in DMSO, 333.15 K | 0.00627
in NMP, 283.15 K | 0.00078
in NMP, 288.15 K | 0.000918
in NMP, 293.15 K | 0.00103
in NMP, 298.15 K | 0.00122
in NMP, 303.15 K | 0.00142
in NMP, 308.15 K | 0.00162
in NMP, 313.15 K | 0.00188
in NMP, 318.15 K | 0.00215
in NMP, 323.15 K | 0.00252
in NMP, 328.15 K | 0.00308
in NMP, 333.15 K | 0.00373
in ethanol, 283.15 K | 1.03e-06
in ethanol, 288.15 K | 1.56e-06
in ethanol, 293.15 K | 2.41e-06
in ethanol, 298.15 K | 3.74e-06
in ethanol, 303.15 K | 5.44e-06
in ethanol, 308.15 K | 7.73e-06
in ethanol, 313.15 K | 1.01e-05
in ethanol, 318.15 K | 1.41e-05
in ethanol, 323.15 K | 1.94e-05
in ethanol, 328.15 K | 2.55e-05
in ethanol, 333.15 K | 3.33e-05
in isobutanol, 283.15 K | 1.2e-05
in isobutanol, 288.15 K | 1.62e-05
in isobutanol, 293.15 K | 2.13e-05
in isobutanol, 298.15 K | 2.73e-05
in isobutanol, 303.15 K | 3.55e-05
in isobutanol, 308.15 K | 4.61e-05
in isobutanol, 313.15 K | 5.88e-05
in isobutanol, 318.15 K | 7.44e-05
in isobutanol, 323.15 K | 9.39e-05
in isobutanol, 328.15 K | 0.000116
in isobutanol, 333.15 K | 0.000135
in isopropanol, 283.15 K | 6.58e-06
in isopropanol, 288.15 K | 7.97e-06
in isopropanol, 293.15 K | 9.58e-06
in isopropanol, 298.15 K | 1.14e-05
in isopropanol, 303.15 K | 1.34e-05
in isopropanol, 308.15 K | 1.63e-05
in isopropanol, 313.15 K | 1.93e-05
in isopropanol, 318.15 K | 2.22e-05
in isopropanol, 323.15 K | 2.65e-05
in isopropanol, 328.15 K | 3.12e-05
in isopropanol, 333.15 K | 3.56e-05
in methanol, 283.15 K | 7.08e-07
in methanol, 288.15 K | 1.05e-06
in methanol, 293.15 K | 1.57e-06
in methanol, 298.15 K | 2.25e-06
in methanol, 303.15 K | 3.15e-06
in methanol, 308.15 K | 4.41e-06
in methanol, 313.15 K | 6.31e-06
in methanol, 318.15 K | 8.49e-06
in methanol, 323.15 K | 1.17e-05
in methanol, 328.15 K | 1.59e-05
in methanol, 333.15 K | 2.14e-05
in n-butanol, 283.15 K | 1.93e-05
in n-butanol, 288.15 K | 2.58e-05
in n-butanol, 293.15 K | 3.46e-05
in n-butanol, 298.15 K | 4.36e-05
in n-butanol, 303.15 K | 5.64e-05
in n-butanol, 308.15 K | 7.1e-05
in n-butanol, 313.15 K | 8.77e-05
in n-butanol, 318.15 K | 0.000111
in n-butanol, 323.15 K | 0.000141
in n-butanol, 328.15 K | 0.000173
in n-butanol, 333.15 K | 0.000218
in n-propanol, 283.15 K | 7.7e-06
in n-propanol, 288.15 K | 1e-05
in n-propanol, 293.15 K | 1.32e-05
in n-propanol, 298.15 K | 1.69e-05
in n-propanol, 303.15 K | 2.16e-05
in n-propanol, 308.15 K | 2.64e-05
in n-propanol, 313.15 K | 3.39e-05
in n-propanol, 318.15 K | 4.31e-05
in n-propanol, 323.15 K | 5.53e-05
in n-propanol, 328.15 K | 6.78e-05
in n-propanol, 333.15 K | 8.09e-05
in water, 283.15 K | 1.03e-07
in water, 288.15 K | 1.31e-07
in water, 293.15 K | 1.67e-07
in water, 298.15 K | 2.12e-07
in water, 303.15 K | 2.6e-07
in water, 308.15 K | 3.23e-07
in water, 313.15 K | 4e-07
in water, 318.15 K | 4.96e-07
in water, 323.15 K | 6.07e-07
in water, 328.15 K | 7.33e-07
in water, 333.15 K | 8.81e-07
